Results: US9862676B2, “Hydroxamic acid derivative or salt thereof” (TOYAMA CHEMICAL CO., LTD., priority 2013, dated 2018)
In brackets after ≈: the same amount, converted by molar mass.

Legend:
Format in all cases: cell-based
[1] = test system: Escherichia coli ATCC25922 strain; assay: Antibacterial activity, MIC by broth microdilution (CLSI)
Experimental: (§1) The minimum inhibitory concentration (MIC) was measured according to the CLSI (Clinical and Laboratory Standards Institute) standard method using a broth microdilution method given below. The bacteria used were a Pseudomonas aeruginosa ATCC27853 strain, an Escherichia coli ATCC25922 strain and a Klebsiella pneumoniae ATCC13883 strain. Test bacterial cells of each strain cultured overnight in a Mueller-Hinton agar medium were scraped off and suspended at the McFarland 0.5 standard, and this suspension was diluted 10-fold to prepare an inoculum solution. The inoculum solution (0.005 mL) was inoculated to a cation-adjusted Mueller-Hinton medium containing each test compound and cultured at 35° C. for 16 to 20 hours. The minimum drug concentration at which bacterial growth was not visible to the naked eye was defined as MIC.

[2] = test system: Pseudomonas aeruginosa ATCC27853 strain; assay: as above
Experimental: as §1

[3] = Test on inhibition of Vero cell growth (XTT); settings: African green monkey, Vero cells, 3 days culture, read-out: CC50 (concentration inhibiting 50% of cell growth)
Experimental: Each test compound was dissolved in dimethyl sulfoxide, adjusted to each concentration using E'MEM, and then dispensed at 0.1 mL/well to 96-well microplates. The Vero cell suspension was prepared at 3×10^4 cells/mL using E'MEM supplemented with 20% FBS, inoculated thereto at 0.1 mL/well, and cultured at 37° C. for 3 days under 5% CO2. At the completion of the culture, PBS supplemented with 1 mg/mL 2,3-bis-(2-methoxy-4-nitro-5-sulfophenyl)-5-((phenylamino)carbonyl)-2H-tetrazolium inner salt monosodium salt (XTT) and 25 μM phenazine methosulfate (PMS) was prepared and added thereto at 50 μL/well. Approximately 2 hours later, the absorbance at 450 nm was measured using a microplate reader.

[4] = test system: Klebsiella pneumoniae ATCC13883 strain; assay: Antibacterial activity, MIC by broth microdilution (CLSI)
Experimental: as §1

Row | Structure (SMILES) | MIC [1] | MIC [2] | CC50 at 3 days [3] | MIC [4]
1 | CNC(=O)[C@@](C)(C(=O)NO)N(C)C(=O)c1ccc(C#Cc2ccc(C(C)OCCO)cc2)cc1 (stereo partly drawn) [Example 21, (2S)—N-hydroxy-2-((4-((4-(1-(2-hydroxyethoxy)ethyl)phenyl)ethynyl)benzoyl)(methyl)amino)-N′,2-dimethyl-malonamide] | 0.5 µg/mL (≈ 1.07 µM) |  |  | 
2 | CNC(=O)[C@@](C)(C(=O)NO)N(C)C(=O)c1ccc(C#Cc2ccc(COCC(O)CO)cc2)cc1 (stereo partly drawn) [Example 2, (2S)-2-((4-((4-((2,3-dihydroxypropoxy)methyl)phenyl)ethynyl)benzoyl)(methyl)amino)-N-hydroxy-N′,2-dimethylmalonamide] |  | 1 µg/mL (≈ 2.07 µM) | ≥ 100 µg/mL | 
3 | CNC(=O)[C@@](C)(C(=O)NO)N(C)C(=O)c1ccc(C#Cc2ccc(CO[C@@H](C)CO)cc2)cc1 [Example 8, (2S)—N-hydroxy-2-((4-((4-(((1S)-2-hydroxy-1-methylethoxy)methyl)phenyl)ethynyl)benzoyl)(methyl)amino)-N′,2-dimethylmalonamide] | 0.25 µg/mL (≈ 0.535 µM) | 1 µg/mL (≈ 2.14 µM) | ≥ 100 µg/mL | 1 µg/mL (≈ 2.14 µM)
4 | CNC(=O)[C@@](C)(C(=O)NO)N(C)C(=O)c1ccc(C#Cc2ccc([C@H](O)COCCCO)cc2)cc1 [Example 28, (2S)—N-hydroxy-2-((4-((4-((1S)-1-hydroxy-2-(3-hydroxypropoxy)ethyl)phenyl)ethynyl)benzoyl)(methyl)amino)-N′,2-dimethyl-malonamide] | 0.5 µg/mL (≈ 1 µM) |  | ≥ 100 µg/mL | 
5 | CNC(=O)[C@@](C)(C(=O)NO)N(C)C(=O)c1ccc(C#Cc2ccc(C(O)COCCO)c(F)c2)cc1 (stereo partly drawn) [Example 27, (2S)-2-((4-((3-fluoro-4-(1-hydroxy-2-(2-hydroxyethoxy)ethyl)phenyl)ethynyl)benzoyl)(methyl)amino)-N-hydroxy-N′,2-dimethylmalonamide] |  | 1 µg/mL (≈ 1.99 µM) |  | 
6 | CNC(=O)[C@@](C)(C(=O)NO)N(C)C(=O)c1ccc(C#Cc2ccc([C@@H](O)CCO)cc2)cc1 [Example 32, (2S)-2-((4-((4-((1S)-1,3-dihydroxypropyl)phenyl)ethynyl)benzoyl)(methyl)amino)-N-hydroxy-N′,2-dimethyl-malonamide] | 0.5 µg/mL (≈ 1.1 µM) | 1 µg/mL (≈ 2.21 µM) |  | 
7 | CNC(=O)[C@@](C)(C(=O)NO)N(C)C(=O)c1ccc(C#Cc2ccc([C@@H](O)COC)cc2)cc1 [Example 31, (2S)—N-hydroxy-2-((4-((4-((1R)-1-hydroxy-2-methoxyethyl)phenyl)ethynyl)benzoyl)(methyl)amino)-N′,2-dimethyl-malonamide] | 0.5 µg/mL (≈ 1.1 µM) |  | ≥ 100 µg/mL | 1 µg/mL (≈ 2.21 µM)
8 | CNC(=O)[C@@](C)(C(=O)NO)N(C)C(=O)c1ccc(C#Cc2ccc(C(CO)OC)cc2)cc1 (stereo partly drawn) [Example 9, (2S)—N-hydroxy-2-((4-((4-(2-hydroxy-1-methoxyethyl)phenyl)ethynyl)benzoyl)(methyl)amino)-N′,2-dimethyl-malonamide] | 0.5 µg/mL (≈ 1.1 µM) |  | ≥ 100 µg/mL | 
9 | CNC(=O)[C@@](C)(C(=O)NO)N(C)C(=O)c1ccc(C#Cc2ccc([C@@H](O)CO)c(F)c2)cc1 [Example 26, (2S)-2-((4-((4-(1,2-dihydroxyethyl)-3-fluorophenyl)ethynyl)benzoyl)(methyl)amino)-N-hydroxy-N′,2-dimethyl-malonamide] |  | 1 µg/mL (≈ 2.19 µM) |  | 
10 | CNC(=O)[C@@](C)(C(=O)NO)N(C)C(=O)c1ccc(C#Cc2ccc([C@H](O)[C@@H](C)O)cc2)cc1 [Example 34, (2S)-2-((4-((4-((1S,2R)-1,2-dihydroxypropyl)phenyl)ethynyl)benzoyl)(methyl)amino)-N-hydroxy-N′,2-dimethyl-malonamide] | 0.5 µg/mL (≈ 1.1 µM) | 1 µg/mL (≈ 2.21 µM) | ≥ 100 µg/mL | 
11 | CNC(=O)[C@@](C)(C(=O)NO)N(C)C(=O)c1ccc(C#Cc2ccc([C@@H](C)O)cc2)cc1 [Example 37, (2S)—N-hydroxy-2-((4-((4-((1R)-1-hydroxyethyl)phenyl)ethynyl)benzoyl)(methyl)amino)-N′,2-dimethyl-malonamide] | 0.125 µg/mL (≈ 0.295 µM) | 1 µg/mL (≈ 2.36 µM) |  | 0.5 µg/mL (≈ 1.18 µM)
12 | CNC(=O)[C@@](C)(C(=O)NO)N(C)C(=O)c1ccc(C#Cc2ccc(C(O)COCCO)cc2)cc1 (stereo partly drawn) [Example 22, (2S)—N-hydroxy-2-((4-((4-(1-hydroxy-2-(2-hydroxyethoxy)ethyl)phenyl)ethynyl)benzoyl)(methyl)amino)-N′,2-dimethyl-malonamide] |  | 1 µg/mL (≈ 2.07 µM) | ≥ 100 µg/mL | 
13 | CNC(=O)[C@@](C)(C(=O)NO)N(C)C(=O)c1ccc(C#Cc2ccc(COC3COC3)cc2)cc1 [Example 11, (2S)—N-hydroxy-N′,2-dimethyl-2-(methyl(4-((4-((oxetan-3-yloxy)methyl)phenyl)ethynyl)benzoyl)amino)malonamide] | 0.0625 µg/mL (≈ 0.134 µM) |  |  | 0.5 µg/mL (≈ 1.07 µM)
14 | CNC(=O)[C@@](C)(C(=O)NO)N(C)C(=O)c1ccc(C#Cc2ccc(COC(CO)CO)cc2)cc1 [Example 5, (2S)—N-hydroxy-2-((4-((4-((2-hydroxy-1-(hydroxymethyl)ethoxy)methyl)phenyl)ethynyl)benzoyl)(methyl)amino)-N′,2-dimethylmalonamide] |  |  | ≥ 100 µg/mL | 
15 | CCOC[C@@H](O)c1ccc(C#Cc2ccc(C(=O)N(C)[C@@](C)(C(=O)NC)C(=O)NO)cc2)cc1 [Example 29, (2S)-2-((4-((4-((1S)-2-ethoxy-1-hydroxyethyl)phenyl)ethynyl)benzoyl)(methyl)amino)-N-hydroxy-N′,2-dimethyl-malonamide] | 0.125 µg/mL (≈ 0.267 µM) |  | ≥ 100 µg/mL | 0.5 µg/mL (≈ 1.07 µM)
16 | CNC(=O)[C@@](C)(C(=O)NO)N(C)C(=O)c1ccc(C#Cc2ccc(C(CO)CO)cc2)cc1 [Example 6, (2S)—N-hydroxy-2-((4-((4-(2-hydroxy-1-(hydroxymethyl)ethyl)phenyl)ethynyl)benzoyl)(methyl)amino)-N′,2-dimethyl-malonamide] |  |  | ≥ 100 µg/mL | 
17 | CNC(=O)[C@@](C)(C(=O)NO)N(C)C(=O)c1ccc(C#Cc2ccc(CC(O)CO)cc2)cc1 (stereo partly drawn) [Example 15, (2S)-2-((4-((4-(2,3-dihydroxypropyl)phenyl)ethynyl)benzoyl)(methyl)amino)-N-hydroxy-N′,2-dimethylmalonamide] |  | 1 µg/mL (≈ 2.21 µM) |  | 
18 | CNC(=O)[C@@](C)(C(=O)NO)N(C)C(=O)c1ccc(C#Cc2ccc(/C=C/COC)cc2)cc1 [Example 12, (2S)—N-hydroxy-2-((4-((4-((1E)-3-methoxy-1-propen-1-yl)phenyl)ethynyl)benzoyl)(methyl)amino)-N′,2-dimethyl-malonamide] | 0.0625 µg/mL (≈ 0.139 µM) | 1 µg/mL (≈ 2.22 µM) |  | 0.125 µg/mL (≈ 0.278 µM)
19 | CNC(=O)[C@@](C)(C(=O)NO)N(C)C(=O)c1ccc(C#Cc2ccc([C@H](C)O)cc2)cc1 [Example 38, (2S)—N-hydroxy-2-((4-((4-((1S)-1-hydroxyethyl)phenyl)ethynyl)benzoyl)(methyl)amino)-N′,2-dimethyl-malonamide] | 0.25 µg/mL (≈ 0.59 µM) |  |  | 
20 | CNC(=O)[C@@](C)(C(=O)NO)N(C)C(=O)c1ccc(C#Cc2ccc(CC(CO)CO)cc2)cc1 [Example 18, (2S)—N-hydroxy-2-((4-((4-(3-hydroxy-2-(hydroxymethyl)propyl)phenyl)ethynyl)benzoyl)(methyl)amino)-N′,2-dimethyl-malonamide] |  | 1 µg/mL (≈ 2.14 µM) |  | 
21 | CNC(=O)[C@@](C)(C(=O)NO)N(C)C(=O)c1ccc(C#Cc2ccc(COCCOC(C)=O)cc2)cc1 [Example 4, 2-((4-((4-((((1S)-2-(hydroxyamino)-1-methyl-1-((methylamino)carbonyl)-2-oxoethyl)(methyl)amino)carbonyl)phenyl)ethynyl)benzyl)oxy)ethyl acetate] | 0.25 µg/mL |  | ≥ 100 µg/mL | 0.5 µg/mL
